# Reference: ChEMBL document CHEMBL1136837, “Unified QSAR approach to antimicrobials. 4. Multi-target QSAR modeling and comparative multi-distance study of the giant components of antiviral drug-drug complex networks” (Bioorg Med Chem, 2009)
# Columns and labels:
# [1] = tested on: unidentified influenza virus; test: Antiviral activity against influenza virus; assay type: functional, organism-based
# [2] = tested on: Human alphaherpesvirus 2; test: Antiviral activity against Herpes simplex virus 2; assay type: functional, organism-based; conditions: Human alphaherpesvirus 2
# [3] = tested on: Human alphaherpesvirus 1; test: Antiviral activity against Herpes simplex virus 1; assay type: functional, organism-based; conditions: Human alphaherpesvirus 1
# [4] = tested on: Hepatitis B virus; test: Antiviral activity against Hepatitis B virus; assay type: functional, organism-based
# [5] = tested on: Hepatitis C virus; test: Antiviral activity against Hepatitis C virus; assay type: functional, organism-based, Hepacivirus hominis; conditions: Hepatitis C virus
# [6] = tested on: Human papillomavirus; test: Antiviral activity against Human papillomavirus; assay type: functional, organism-based
# [7] = tested on: Human alphaherpesvirus 3; test: Antiviral activity against Varicella zoster virus; assay type: functional, organism-based
# [8] = tested on: Human immunodeficiency virus 1; test: Antiviral activity against HIV1; assay type: functional, organism-based
# [9] = tested on: Vaccinia virus; test: Antiviral activity against Vaccinia virus; assay type: functional, organism-based, Orthopoxvirus vaccinia; conditions: Orthopoxvirus vaccinia
# [10] = tested on: Human betaherpesvirus 5; test: Antiviral activity against Human cytomegalovirus; assay type: functional, organism-based; conditions: Human betaherpesvirus 5
structure (smiles),measurement,setting,value
CC(C)/C=C1\N=C(CC(C)C)C(=O)N(O)C1=O,IC50,[1],5.5 µM
O=c1[nH]c(=O)n([C@H]2C[C@H](O)[C@]3(CO)C[C@H]23)cc1Br,IC50,[2],2200 nM
same,IC50,[3],1230 nM
Nc1cc(OCCOCP(=O)(O)O)nc(N)n1,IC50,[2],0.0909 nM
same,IC50,[3],0.0246 nM
Nc1ncnc2c1ccn2[C@H]1C[C@H](OP(=O)(S)OC[C@H]2O[C@@H](n3cnc4c(N)ncnc43)C[C@@H]2O)[C@@H](CO)O1 (stereo partly drawn),IC50,[4],300 nM
same,IC50,[5],1000 nM
O=C(O)CS(=O)(=O)c1cccc(COc2ccccc2)c1,IC50,[6],80 µM
O=C(O)CS(=O)(=O)c1ccc(-c2ccc(C(=O)Nc3ccccc3)cc2)cc1,IC50,[6],1.3 µM
O=S(=O)(O)CS(=O)(=O)c1ccc(-c2ccccc2)cc1,IC50,[6],32 µM
NC(=O)/C(O)=C/C(=O)C1CCCCC1,IC50,[1],500 µM
Cc1ccc(Sc2nc(N)nc3c2ncn3CCOCP(=O)(OCC(F)(F)F)OCC(F)(F)F)cc1,IC50,[4],60 nM
NC(=O)CS(=O)(=O)c1ccc(-c2ccccc2)cc1,IC50,[6],80 µM
Nc1ncnc2c1ncn2CCOCP(=O)(O)O [ADEFOVIR],IC50,[3],0.024 nM
Cc1ccccc1CNC(=O)c1cccc(-c2ccc(S(=O)(=O)CC(=O)O)cc2)c1,IC50,[6],0.032 µM
O=C1CCc2ccccc2C(=O)N1O,IC50,[1],1000 µM
O=C(O)CS(=O)(=O)c1ccc(-c2cccc(CC(=O)NCc3ccccc3)c2)cc1,IC50,[6],0.3 µM
O=C(O)CSc1ccc(-c2ccccc2)cc1,IC50,[6],80 µM
Nc1nc(NC2CC2)cc(=O)n1CCOCP(=O)(O)O,IC50,[7],0.164 nM
same,IC50,[2],0.0526 nM
same,IC50,[3],0.0526 nM
same,IC50,[8],0.329 nM
Nc1nc(Sc2ccccc2)c2ncn(CCOCP(=O)(OCC(F)(F)F)OCC(F)(F)F)c2n1,IC50,[4],50 nM
Nc1nc(Sc2ccc([N+](=O)[O-])cc2)c2ncn(CCOCP(=O)(OCC(F)(F)F)OCC(F)(F)F)c2n1,IC50,[4],520 nM
CCOc1ccc(Sc2nc(N)nc3c2ncn3CCOCP(=O)(OCC(F)(F)F)OCC(F)(F)F)cc1,IC50,[4],640 nM
COC(=O)/C(O)=C/C(=O)c1ccccc1,IC50,[1],500 µM
CCC(=O)c1c(O)n(O)c2cc(NC(=O)c3ccc(Cl)cc3Cl)ccc12,IC50,[1],45 µM
COc1ccc(Sc2nc(N)nc3c2ncn3CCOCP(=O)(OCC(F)(F)F)OCC(F)(F)F)cc1 [ALAMIFOVIR],IC50,[4],30 nM
O=C(Nc1ccc2c(c1)N(O)C(=O)/C2=C(\O)c1ccccc1)c1ccc(NC(=O)c2cccs2)cc1,IC50,[1],20 µM
O=C(NO)c1ccccc1 [BENZOHYDROXAMATE],IC50,[1],500 µM
O=S(=O)(Cc1nnn[nH]1)c1ccc(-c2ccccc2)cc1,IC50,[6],63 µM
Nc1nc2c(ncn2COCCO)c(=O)[nH]1 [ACYCLOVIR],IC50,[9],384 nM
O=c1[nH]c(=O)n([C@H]2C[C@H](O)[C@]3(CO)C[C@H]23)cc1/C=C/Br,IC50,[2],291000 nM
same,IC50,[3],6410 nM
CC(C)Oc1ccc(Sc2nc(N)nc3c2ncn3CCOCP(=O)(OCC(F)(F)F)OCC(F)(F)F)cc1,IC50,[4],290 nM
Nc1nc(Sc2ccc(OC(F)(F)F)cc2)c2ncn(CCOCP(=O)(OCC(F)(F)F)OCC(F)(F)F)c2n1,IC50,[4],60 nM
O=C(/C=C/c1ccccc1Cl)Nc1ccc(C(=O)Nc2ccc3c(c2)N(O)C(=O)/C3=C(\O)c2ccccc2)cc1,IC50,[1],9.5 µM
Cc1cn([C@H]2C[C@H](OP(=O)(S)OC[C@H]3O[C@@H](n4cnc5c(N)ncnc54)C[C@@H]3O)[C@@H](COP(=O)(S)O[C@H]3C[C@H](n4ccc(N)nc4=O)O[C@@H]3CO)O2)c(=O)[nH]c1=O (stereo partly drawn),IC50,[4],2100 nM
same,IC50,[5],1000 nM
Cc1cccc(CNC(=O)c2cccc(-c3ccc(S(=O)(=O)CC(=O)O)cc3)c2)c1C,IC50,[6],0.0092 µM
CN(C)c1cc(O)nc(N)n1,IC50,[7],0.325 nM
same,IC50,[2],2.6 nM
same,IC50,[3],2.6 nM
Cc1cn([C@@H]2O[C@H](CO)[C@@H](O)[C@@H]2F)c(=O)[nH]c1=O [5-METHYL-2'-FLUOROARAURACIL],IC50,[4],830 nM
Nc1nc(Sc2ccc(Cl)cc2)c2ncn(CCOCP(=O)(OCC(F)(F)F)OCC(F)(F)F)c2n1,IC50,[4],120 nM
O=C1Cc2ccccc2CC(=O)N1O,IC50,[1],1000 µM
Cc1c(N)nc(N)nc1OCCOCP(=O)(O)O,IC50,[10],0.72 nM
same,IC50,[7],0.018 nM
same,IC50,[2],1.2 nM
same,IC50,[3],1.2 nM
same,IC50,[9],0.86 nM
Nc1nc(Sc2ccc3ccccc3c2)c2ncn(CCOCP(=O)(OCC(F)(F)F)OCC(F)(F)F)c2n1,IC50,[4],90 nM
C[C@@H](NC(=O)c1cccc(-c2ccc(S(=O)(=O)CC(=O)O)cc2)c1)c1ccccc1,IC50,[6],0.043 µM
O=c1c2nccnc2ncn1O,IC50,[1],500 µM
CC(NP1(=O)CO[C@@H](Cn2ccc(N)nc2=O)CO1)C(=O)OCCc1ccccc1 (stereo partly drawn),IC50,[9],7100 nM
CCc1ccc(Sc2nc(N)nc3c2ncn3CCOCP(=O)(OCC(F)(F)F)OCC(F)(F)F)cc1,IC50,[4],400 nM
COc1cccc(Sc2nc(N)nc3c2ncn3CCOCP(=O)(OCC(F)(F)F)OCC(F)(F)F)c1,IC50,[4],40 nM
O=c1[nH]c2nccnc2c(=O)n1O,IC50,[1],95 µM
